Molecules are shown by their SMILES. Bounds are passed on as bounds.

A short description of the data set: Lipophilicity, log P of the compound. It counts as physicochemical. The conditions noted are these: octanol/water.
Take `Nc1nc2c(ncn2COCCO)c(=O)[nH]1` [ACYCLOVIR]: the logP was in the range of 1 to 4. Molecule `CC1(C)C(C=C(Cl)Cl)C1C(=O)OCc1cccc(Oc2ccccc2)c1` (stereo unspecified) [PERMETHRIN] had a logP of more than 5. With `O=c1[nH]cc(F)c(=O)[nH]1` [FLUOROURACIL] the figure was 1 to 4. Molecule `Clc1ccc(COC(Cn2ccnc2)c2ccc(Cl)cc2Cl)c(Cl)c1` (stereo unspecified) [MICONAZOLE] yielded a logP of more than 5. Turning to `NC(N)=O` [UREA], the logP is 1 to 4. As for `CN(C/C=C/C#CC(C)(C)C)Cc1cccc2ccccc12` [TERBINAFINE], the logP is more than 5.

As a reminder, the logP is the decadic logarithm of the partition coefficient of the neutral form, usually between octanol and water. A higher logP goes with higher lipophilicity.

The values above are taken from ChEMBL document CHEMBL4622856, “Essential Medicinal Chemistry of Essential Medicines” (J Med Chem, 2020).
